Patent US5389645A, “Substituted tyrosyl diamine amide compounds” (G. D. Searle & Co., priority 1992, dated 1995)
Structures can show the parent of a compound that is named as a salt.

Assays:
δ opioid receptors = δ opioid receptors (Rattus norvegicus, UniProt P33533); experiment: Opiate Binding Assay, displacement of 3[H]-DSLET from δ opioid receptors (rat forebrain membranes)
μ opioid receptors = μ opioid receptors (Rattus norvegicus, UniProt P33535); experiment: Opiate Binding Assay, displacement of 3[H]-DAMPGO from μ opioid receptors (rat forebrain membranes)
[1] = tested on: the same receptor sites as do the opiates; details: cited from earlier work
[2] = antagonized by naloxone; cited from earlier work
[3] = extended use; cited from earlier work
mice = experiment: Writhing Assay (phenylbenzoquinone-induced writhing, analgesia, s.c.); assay type: in vivo, mouse; details: for relative potency in the Writhing Assay: among compounds of the invention tested; for Number of Animals out of 10 Exhibiting Analgesia: subcutaneous, 5 mpk, PBQ, mice
Text: The "Writhing Assay" is one of the most widely-used experimental procedures for measuring the analgesic activity of different narcotic and nonnarcotic analgesic agents, and involves the continuous, chemically-induced pain of visceral origin to an animal, such as a mouse or rat. [Gyires et al., Arch. int. Pharmacodyn, 267, 131-140 (1984); C. Vander Wende et al., Fed. Proc., 15, 494 (1956); Koster et al., Fed. Proc., 18, 412 (1959); and Witken et al., J. Pharmacol. Exp. Ther., 153,400-408 (1961).] Chemicals which may be used to induce this pain include phenylbenzoquinone (PBQ) and acetic acid. As a result of the chemical irritation to the animal, a characteristic stretching and writhing of the animal (dorsiflexion of the animal's back, extension of its hindlimbs and the strong contraction of its abdominal musculature) will generally occur. […] Drugs which reduce the number of writhes of the animal appear to restore the normal nociceptive threshold of the animal.
This assay was conducted generally in the manner described by R. I. Taber, "Predictive Value of Analgesic Assays in Mice and Rats," Advances in Biochemical Psychopharmacology, 8, 191 (1974).
Two hundred CD Charles River mice, weighing 20 to 30 grams, were used in this assay.
Twenty-five minutes after subcutaneous administration to the mice of 10 mg per kilogram (mpk) of body weight of a tyrosyl diamine amide compound of the invention (hereinafter "test compound"), 0.1 mL per 10 g of body weight of a 0.025% w/v solution of phenylbenzoquinone (PBQ) was injected intraperitoneally into each mouse. Some mice were given saline in place of a test compound, and were used as a control group.
Five minutes later, each mouse was individually placed into a glass beaker for observation, and the number of writhes occurring during the following ten-minute period was counted.
A compound was considered to be "active" (to have produced analgesia in a mouse) if, after the administration of 10 mg per kilogram (mpk) of body weight of the compound to the mouse, the number of writhes elicited by a mouse injected with PBQ was equal to, or less than, one-half the median number of writhes recorded for the saline-treated control group of mice that day, as described by R. I. Taber, supra.
The standard initial screening dose of a test compound employed in this assay was 10 mpk […]. […] (The slopes of the dose-response curves for the compounds analyzed were compared as described by Tallarida and Murray, Manual of Pharmacologic Calculations, Page 11 (Springer Verlag, New York, 1981)).

Chain of μ opioid receptors (P33535 whole entry): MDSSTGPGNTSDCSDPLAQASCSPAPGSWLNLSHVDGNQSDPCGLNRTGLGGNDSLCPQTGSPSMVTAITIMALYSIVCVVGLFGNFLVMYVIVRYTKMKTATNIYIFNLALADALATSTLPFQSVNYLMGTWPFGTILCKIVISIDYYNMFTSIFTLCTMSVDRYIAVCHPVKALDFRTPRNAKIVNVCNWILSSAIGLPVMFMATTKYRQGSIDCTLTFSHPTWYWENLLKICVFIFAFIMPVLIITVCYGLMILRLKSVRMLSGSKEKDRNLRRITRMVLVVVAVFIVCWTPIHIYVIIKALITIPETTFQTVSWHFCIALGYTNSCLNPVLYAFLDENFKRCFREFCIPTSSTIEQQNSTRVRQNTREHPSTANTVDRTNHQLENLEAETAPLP
Chain of δ opioid receptors (P33533 whole entry): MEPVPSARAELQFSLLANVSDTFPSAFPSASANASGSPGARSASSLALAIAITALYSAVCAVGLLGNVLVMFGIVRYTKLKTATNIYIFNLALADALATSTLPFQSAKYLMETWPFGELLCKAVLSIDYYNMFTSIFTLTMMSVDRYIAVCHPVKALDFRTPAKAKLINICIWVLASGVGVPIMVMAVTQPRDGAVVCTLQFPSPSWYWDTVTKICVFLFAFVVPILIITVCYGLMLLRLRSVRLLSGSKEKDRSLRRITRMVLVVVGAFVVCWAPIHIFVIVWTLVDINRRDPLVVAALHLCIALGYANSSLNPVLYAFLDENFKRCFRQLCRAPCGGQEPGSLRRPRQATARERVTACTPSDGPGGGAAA

Structure (SMILES)	IC50 (δ opioid receptors) [nM]	IC50 (μ opioid receptors) [nM]	also measured
Cc1cc(O)cc(C)c1C[C@H](N)C(=O)NC(C)(C)CNC(=O)c1cnc2ccccc2c1 [Example 8, N-[2-[[2S-amino-3-(4-hydroxy-2,6-dimethylphenyl)-1-oxopropyl]amino]-2-methylpropyl]-3-quinolinecarboxamide, hydrochloride]	25	< 10	
CC(C)C[C@H](NC(=O)[C@H](Cc1ccccc1)NC(=O)CNC(=O)CNC(=O)[C@@H](N)Cc1ccc(O)cc1)C(=O)O [leucine enkephalin, H2 N-Tyr-Gly-Gly-Phe-Leu-OH]			binding to the same receptor sites as do the opiates [1]: bind to the same receptor sites as do the opiates; morphine-like actions [2]: exhibit some weak morphine-like actions
CC(=O)Nc1ccc(O)cc1 [acetaminophen]			undesirable side effects [3]: liver toxicity
CSCC[C@H](NC(=O)[C@H](Cc1ccccc1)NC(=O)CNC(=O)CNC(=O)[C@@H](N)Cc1ccc(O)cc1)C(=O)O [methionine enkephalin, H2 N-Tyr-Gly-Gly-Phe-Met-OH]			binding to the same receptor sites as do the opiates [1]: bind to the same receptor sites as do the opiates; morphine-like actions [2]: exhibit some weak morphine-like actions
Cc1cc(O)cc(C)c1C[C@H](N)C(=O)NC(C)(C)CNC(=O)c1ccc2ccccc2n1 [Example 6, N-[2-[[2S-amino-3-(4-hydroxy-2,6-dimethylphenyl)-1-oxopropyl]amino]-2-methylpropyl]-2-quinolinecarboxamide, hydrochloride]	3.5	1.3	relative potency in the Writhing Assay (mice): the most potent compounds of the invention tested in the Writhing Assay; Number of Animals out of 10 Exhibiting Analgesia (mice): 10/10
Cc1cc(O)cc(C)c1C[C@H](N)C(=O)NC(C)(C)CNC(=O)C#Cc1ccccc1 [Example 18, S-Amino-N-[1,1-dimethyl-2-[(1-oxo-3-phenyl-2-propynyl)amino]ethyl]-4-hydroxy-2,6-dimethylbenzenepropanamide, monohydrochloride]	9.3	< 10	
Cc1cc(O)cc(C)c1C[C@H](N)C(=O)NC(C)(C)CNC(=O)NCc1ccccc1 [Example 10, αS-amino-N-[1,1-dimethyl-2-[[[(phenylmethyl)amino]carbonyl]amino]ethyl]-4-hydroxy.2,6-dimethylbenzenepropanamide, hydrochloride]	23.1	< 10	
Cc1cc(O)cc(C)c1C[C@H](N)C(=O)NCC(C)(C)NC(=O)NCc1ccccc1 [Example 11, αS-amino-4-hydroxy-2,6-dimethyl-N-[2-methyl-2-[[[(phenylmethyl)amino]carbonyl]amino]propyl]benzenepropanamide, hydrochloride]	32.8	58.6	
Cc1cc(O)cc(C)c1C[C@H](N)C(=O)NC(C)(C)CNC(=O)OCc1ccccc1 [Example 3, Phenylmethyl[2-[[2S-amino-3-(4-hydroxy-2,6-dimethylphenyl)-1-oxopropyl]amino]-2-methylpropyl]carbamate, monohydrochloride]	10	62	
Cc1cc(O)cc(C)c1C[C@H](N)C(=O)NCC(C)(C)NC(=O)CCc1ccccc1 [Example 14, αS-Amino-4-hydroxy-2,6-dimethyl-N-[2-methyl-2-[(1-oxo-3-phenylpropyl)amino]propyl]benzenepropanamide, hydrochloride]	66.3	26.3	
Cc1cc(O)cc(C)c1C[C@H](N)C(=O)NC(C)(C)CNC(=O)CCc1ccccc1 [Example 13, αS-amino-N-[1,1-dimethyl-2-[(1-oxo-3-phenylpropyl)amino]ethyl]-4-hydroxy-2,6-dimethylbenzenepropanamide, hydrochloride]	5.5	< 10	relative potency in the Writhing Assay (mice): the most potent compounds of the invention tested in the Writhing Assay; Number of Animals out of 10 Exhibiting Analgesia (mice): 10/10
Cc1cc(O)cc(C)c1C[C@H](N)C(=O)N1CCN(Cc2ccccc2)CC1 [Example 15, 1-[2S-Amino-3-(4-hydroxy-2,6-dimethylphenyl)-1-oxopropyl]-4-(phenylmethyl)piperazine, dihydrochloride]	14.9	4.5	
